According to patent publication US10899793B2, “Melanocortin ligands and methods of use thereof” (priority 2016, dated 2021):
One block for each compound: values may come before it. Square brackets hold non-standard residues; d marks the D form. Peptide text beside a SMILES is read from it. Bip = N[C@@H](Cc1ccc(-c2ccccc2)cc1)C(=O)O; dPhe(4-I) = N[C@H](Cc1ccc(I)cc1)C(=O)O; 2Nal = N[C@@H](Cc1ccc2ccccc2c1)C(=O)O; d2Nal = N[C@H](Cc1ccc2ccccc2c1)C(=O)O; Bta = N[C@@H](Cc1csc2ccccc12)C(=O)O; Tic = O=C(O)[C@@H]1Cc2ccccc2CN1; Nle = CCCC[C@H](N)C(=O)O

Legend:
mMC3R [1] = target: T1, mMC3R (Mus musculus, UniProt P33033); assay: AlphaScreen cAMP agonist assay at mMC3R
mMC4R [2] = target: T2, mMC4R (Mus musculus, UniProt P56450); assay: AlphaScreen cAMP agonist assay at mMC4R; details: for activation at 100 µM: read-out: mMC4R Agonist, percent of the NDP-MSH maximal positive control
mMC1R = mMC1R (Mus musculus, UniProt Q01727); assay: AlphaScreen cAMP agonist assay at mMC1R; details: for mMC1R percent of the NDP-MSH maximal positive control: Table 2, @ 100 μM
mMC5R = mMC5R (Mus musculus, UniProt P41149); assay: AlphaScreen cAMP agonist assay at mMC5R; details: for activation at 100 µM: read-out: percent of the NDP-MSH maximal positive control, Table 2
mMC3R [3] = target: T1, mMC3R; details: Table 1; Schild analysis, pA2 = -Log(Ki); Full Agonist = full dose-response, No Activity = no shift in EC50
mMC3R [4] = target: T1, mMC3R; assay: 125I-NDP-MSH competitive binding assay at mMC3R; set-up: expressed in transfected cells; details: for mMC3R (IC50) Fold Diff.: Table 3, vs Ac-His-DPhe-Arg-Trp-NH2, negative = more potent than control
Description: A typical experiment utilized a 12-well format. […] Pharm. Des.
The plates were incubated at 37° C. with 5% CO2 for 1 hour. Post incubation, the media was aspirated, each well was washed with 500 μL assay media, and cells were lysed with 500 μL of 0.1 M NaOH and 500 μL of 1% Triton x-100.
Following a 10-15 minute room temperature incubation, the cell lysate mixture was transferred to 12×75 mm polystyrene tubes and the radioactivity was quantified using a WIZARD^2 Automatic Gamma Counter (Perkin-Elmer). […] GraphPad, Inc), and dose-response curves in addition to the corresponding IC50 values were calculated by a non-linear regression method. Each reported value represents the mean and standard error of the mean (SEM) of, at least, two independent experiments each containing two experimental replicates.
Note each reported value represents the mean and standard error of the mean (SEM) of at least two independent experiments containing two experimental replicates.

mMC4R [5] = target: T2, mMC4R; assay: 125I-NDP-MSH competitive binding assay at mMC4R; details: Table 3; vs Ac-His-DPhe-Arg-Trp-NH2; negative = more potent than control
mMC4R [6] = target: T2, mMC4R; details: Table 1; Schild analysis, pA2 = -Log(Ki)

T2 sequence (P56450 whole entry): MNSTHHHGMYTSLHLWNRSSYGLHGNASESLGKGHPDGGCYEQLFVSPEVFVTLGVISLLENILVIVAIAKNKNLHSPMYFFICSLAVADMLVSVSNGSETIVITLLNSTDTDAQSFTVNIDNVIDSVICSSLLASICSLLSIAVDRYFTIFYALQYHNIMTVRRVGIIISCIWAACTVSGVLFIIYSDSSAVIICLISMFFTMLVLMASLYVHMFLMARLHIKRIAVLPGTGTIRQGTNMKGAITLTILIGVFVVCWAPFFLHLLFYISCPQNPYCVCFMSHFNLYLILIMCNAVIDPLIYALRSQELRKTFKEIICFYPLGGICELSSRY
Chain of mMC5R (P41149 whole entry): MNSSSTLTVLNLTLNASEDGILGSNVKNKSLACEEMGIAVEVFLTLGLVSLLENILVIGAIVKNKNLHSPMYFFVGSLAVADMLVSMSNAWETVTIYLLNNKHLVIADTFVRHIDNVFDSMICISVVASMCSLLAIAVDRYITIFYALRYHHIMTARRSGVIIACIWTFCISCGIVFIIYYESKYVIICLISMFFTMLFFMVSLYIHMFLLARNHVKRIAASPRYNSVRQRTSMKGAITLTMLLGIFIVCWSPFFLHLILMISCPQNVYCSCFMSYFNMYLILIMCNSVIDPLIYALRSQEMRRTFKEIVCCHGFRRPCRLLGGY
Chain of mMC1R (Q01727 whole entry): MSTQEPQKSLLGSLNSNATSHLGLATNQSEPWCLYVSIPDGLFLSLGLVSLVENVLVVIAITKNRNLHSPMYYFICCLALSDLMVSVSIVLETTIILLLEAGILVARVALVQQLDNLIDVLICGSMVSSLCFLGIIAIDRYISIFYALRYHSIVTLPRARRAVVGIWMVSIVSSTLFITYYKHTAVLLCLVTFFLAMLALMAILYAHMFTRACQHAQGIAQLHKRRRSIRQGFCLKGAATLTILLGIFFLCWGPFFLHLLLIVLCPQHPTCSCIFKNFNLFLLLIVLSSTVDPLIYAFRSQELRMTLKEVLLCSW
T1 sequence (P33033 whole entry): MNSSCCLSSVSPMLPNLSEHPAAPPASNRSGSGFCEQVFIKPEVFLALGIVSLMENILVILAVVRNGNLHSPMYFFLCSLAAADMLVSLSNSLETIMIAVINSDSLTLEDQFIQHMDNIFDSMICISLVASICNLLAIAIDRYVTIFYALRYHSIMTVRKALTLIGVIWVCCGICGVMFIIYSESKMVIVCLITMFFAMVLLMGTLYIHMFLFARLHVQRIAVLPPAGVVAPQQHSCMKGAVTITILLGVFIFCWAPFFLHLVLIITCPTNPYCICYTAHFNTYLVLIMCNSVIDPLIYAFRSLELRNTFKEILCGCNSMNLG

- EC50 (mMC3R [1]): 5800 nM
- fold decreased potency at the mMC3R relative to α-MSH (mMC3R [1]; Arg-Phe reverse analog vs parent): 45,000 fold
- EC50 (mMC4R [2]): 44000 nM
- EC50 (mMC1R): 3000 nM
- EC50 (mMC5R): 2600 nM
Compound: Ac-SYSMEHRFWGKPV-NH2 [SKY2-125-5]

- mMC3R Antagonist pA2 ± SEM (mMC3R [3]): Full Agonist
- IC50 (mMC3R [4]): 440 nM
- fold improvement of binding IC50 at the mMC3R compared to SKY4-48-1 (mMC3R [4]): 120 fold
- mMC3R (IC50) Fold Diff. (mMC3R [4]): -120
- activation at 100 µM (mMC4R [2]): 32%
- mMC4R (IC50) Fold Diff. (mMC4R [5]): -3
Compound: CC(=O)N[C@H](Cc1ccc2ccccc2c1)C(=O)N[C@@H](CCCNC(=N)N)C(=O)N[C@H](Cc1ccc(I)cc1)C(=O)N1Cc2ccccc2C[C@H]1C(N)=O [SKY6-24-3, Ac-DNal(2′)-Arg-(pI)DPhe-Tic-NH2] (Ac-[d2Nal]R[dPhe(4-I)][Tic]-NH2)

- mMC3R Antagonist pA2 ± SEM (mMC3R [3]): Full Agonist
- fold improvement of binding IC50 at the mMC3R compared to SKY4-48-1 (mMC3R [4]): 9 fold
- mMC3R (IC50) Fold Diff. (mMC3R [4]): -9
- mMC4R (IC50) Fold Diff. (mMC4R [5]): 7
Compound: CC(=O)N[C@@H](Cc1ccccc1)C(=O)N[C@@H](CCCNC(=N)N)C(=O)N[C@H](Cc1ccc(I)cc1)C(=O)N[C@@H](Cc1csc2ccccc12)C(N)=O [SKY4-48-15, Ac-Phe-Arg-(pI)DPhe-3Bal-NH2] (Ac-FR[dPhe(4-I)][Bta]-NH2)

- mMC3R Antagonist pA2 ± SEM (mMC3R [3]): No Activity
- mMC4R Antagonist pA2 ± SEM (mMC4R [6]): No Activity
- mMC1R percent of the NDP-MSH maximal positive control (mMC1R): 23% @ 100 μM
- activation at 100 µM (mMC5R): 21%
Compound: CC(=O)N[C@@H](Cc1ccc(-c2ccccc2)cc1)C(=O)N[C@@H](CCCNC(=N)N)C(=O)N[C@H](Cc1ccc(I)cc1)C(=O)N[C@@H](Cc1ccc2ccccc2c1)C(N)=O [SKY4-48-36, Ac-Bip-Arg-(pI)DPhe-Nal(2′)-NH2] (Ac-[Bip]R[dPhe(4-I)][2Nal]-NH2)

- mMC3R Antagonist pA2 ± SEM (mMC3R [3]): No Activity
- mMC4R Antagonist pA2 ± SEM (mMC4R [6]): No Activity
- mMC3R Agonist, percent of the NDP-MSH maximal positive control (mMC3R [1]; Table 1, @ 100 μM): 30% @ 100 μM
- mMC1R percent of the NDP-MSH maximal positive control (mMC1R): 67% @ 100 μM
Compound: CC(=O)N[C@@H](Cc1ccccc1)C(=O)N[C@@H](CCCNC(=N)N)C(=O)N[C@H](Cc1ccc(I)cc1)C(=O)N[C@@H](Cc1ccc(-c2ccccc2)cc1)C(N)=O [SKY4-48-7, Ac-Phe-Arg-(pI)DPhe-Bip-NH2] (Ac-FR[dPhe(4-I)][Bip]-NH2)

- mMC3R Antagonist pA2 ± SEM (mMC3R [3]): No Activity
- mMC1R percent of the NDP-MSH maximal positive control (mMC1R): 66% @ 100 μM
- activation at 100 µM (mMC5R): 48%
Compound: CC(=O)N1Cc2ccccc2C[C@H]1C(=O)N[C@@H](CCCNC(=N)N)C(=O)N[C@H](Cc1ccc(I)cc1)C(=O)N[C@@H](Cc1ccc2ccccc2c1)C(N)=O [SKY4-48-38, Ac-Tic-Arg-(pI)DPhe-Nal(2′)-NH2] (Ac-[Tic]R[dPhe(4-I)][2Nal]-NH2)

- mMC3R Antagonist pA2 ± SEM (mMC3R [3]): Full Agonist
- mMC3R (IC50) Fold Diff. (mMC3R [4]): -15
- activation at 100 µM (mMC4R [2]): 47%
- mMC4R (IC50) Fold Diff. (mMC4R [5]): 2
Compound: CC(=O)N[C@@H](Cc1c[nH]cn1)C(=O)N[C@@H](CCCNC(=N)N)C(=O)N[C@H](Cc1ccc(I)cc1)C(=O)N[C@@H](Cc1csc2ccccc12)C(N)=O [SKY4-48-11, Ac-His-Arg-(pI)DPhe-3Bal-NH2] (Ac-HR[dPhe(4-I)][Bta]-NH2)

- EC50 (mMC3R [1]): 1800 nM
- EC50 (mMC4R [2]): 9500 nM
- EC50 (mMC1R): 380 ± 70 nM
- EC50 (mMC5R): 1600 nM
Compound: CCCC[C@H](NC(=O)[C@H](CO)NC(=O)[C@H](Cc1ccc(O)cc1)NC(=O)[C@H](CO)NC(C)=O)C(=O)N[C@@H](CCC(=O)O)C(=O)N[C@@H](Cc1c[nH]cn1)C(=O)N[C@@H](CCCNC(=N)N)C(=O)N[C@H](Cc1ccccc1)C(=O)N[C@@H](Cc1c[nH]c2ccccc12)C(=O)NCC(=O)N[C@@H](CCCCN)C(=O)N1CCC[C@H]1C(=O)N[C@H](C(N)=O)C(C)C [SKY2-125-3, Ac-Ser-Tyr-Ser-Nle-Glu-His-Arg-DPhe-Trp-Gly-Lys-Pro-Val-NH2] (Ac-SYS[Nle]EHR[dF]WGKPV-NH2)
